Patent US11124523B2, “2,6-dioxaspiro [4,5] decane derivatives and preparation method therefor and pharmaceutical applications thereof” (SHANDONG LUYE PHARMACEUTICAL CO., LTD., priority 2017, dated 2021)
Counter-ions that a name gives are not always drawn.

Columns and labels:
CYP2C19 = CYP2C19 (Homo sapiens (Human), UniProt P33261); test: Inhibition of cytochrome P450 isoenzymes, CYP2C19; assay type: in vitro ADME; settings: >50 μM: inhibitory effect less than 50% at 50 μM; read-out: CYP 2C19 IC50
Method: (§1) 4.1 Experimental Purpose: To test the inhibitory effects of the compounds of the present disclosure on different isoforms of human cytochrome P450 isoenzymes
(§2) 1) The activities of CYP1A2, 2C9, 2C19, 2D6, and 3A4 were measured using a standard substrate method. In each reaction, the enzyme activities were measured in the presence and absence of the substance to be tested, wherein a single sample was measured at a total of eight test concentrations. A 5-in-1 mixed inhibitor was used.
(§3) 2) An incubation matrix comprising microsomes, a substrate, and an inhibitor or the compound to be tested was pre-incubated at 37° C. for 5 minutes, and then NADPH was added to start the reaction.
(§4) 3) After the incubation, acetonitrile with an internal standard was added to stop the reaction.
(§5) 4) Metabolites generated by the substrates were measured by using the LC-MS/MS method, and the peak area ratio of each metabolite to the internal standard was evaluated and the inhibition rate and IC50 were calculated.

[1] = biological target: T1, human μ-subtype opioid receptor (hMOR) (Homo sapiens (Human), UniProt P35372); test: MOR β-arrestin-2 agonist activity test; assay type: cell-based; settings: for EC50: >30000 nM = greater than the highest detection concentration, read-out: MOR β-arrestin-2 EC50; for Emax: maximum effect of enkephalin DAMGO was 100%, about 0% = no actual agonist activity
Method: Test 2: β-Arrestin-2 Agonist Activity Test
2.1 Experimental Purpose: To test the β-arrestin-2 agonist activity of the compounds of the present disclosure on the human μ-subtype opioid receptor (hMOR).
a. All samples were dissolved in DMSO to a storage concentration of 10 mM.
(§6) b. A series of diluted samples were formulated on a 384-well LDV plate. A total of 11 concentration points were obtained by 3.162-fold gradient dilution.
c. The series of diluted samples were transferred to an experimental plate by using an Echo machine, wherein 60 nL of the compound was transferred corresponding to each well.
d. 60 nL of 3.33 mM DAMGO (as HPE) and 60 nL of DMSO (as ZPE) were transferred to the corresponding positions on the experimental plate by using the Echo machine.
The experiment was performed using PathHunter Detection Kit from DiscoveRX Cooperation (DiscoveRX #93-0213C3)
a. Assay buffer and PathHunter detection reagent required for the experiment were formulated.
Assay Buffer: 1×DPBS buffer
PathHunter Detection Reagent: The kit was provided therein with three constituents.
c. The experimental plate was centrifuged at 300 rpm for 30 s and incubated at room temperature for 2 hours.
d. 6 μL of the PathHunter detection reagent was added to each well of the experimental plate.
e. The experimental plate was centrifuged at 300 rpm for 30 seconds, then left at room temperature for 60 minutes, and then read on the Envision.

CYP2D6 = CYP2D6 (Homo sapiens (Human), UniProt P10635); test: Inhibition of cytochrome P450 isoenzymes, CYP2D6; assay type: in vitro ADME; settings: read-out: CYP 2D6 IC50
Method: as §1, §2, §3, §4, §5

CYP3A4 = CYP3A4 (Homo sapiens (Human), UniProt P08684); test: Inhibition of cytochrome P450 isoenzymes, CYP3A4; assay type: in vitro ADME; settings: >50 μM: inhibitory effect less than 50% at 50 μM; read-out: CYP 3A4 IC50
Method: as §1, §2, §3, §4, §5

[2] = Metabolic stability in liver microsomes; assay type: in vitro ADME; settings: pH 7.4; human liver microsomes 0.5 mg protein/mL; 45 mg microsome protein/g liver, 20 g liver/kg; read-out: Intrinsic Clearance CLint(liver) in Human Liver
Method: Test 3: Metabolic Stability in Liver Microsomes
3.1 Experimental Purpose: To test the metabolic stability of the compounds of the present disclosure in human liver microsomes
a. All samples as well as testosterone, diclofenac and propafenone acting as reference substances were dissolved in DMSO to a storage concentration of 10 mM.
b. Intermediate Solution: 5 μL of the substance to be tested or the reference substance was diluted with 45 μL of DMSO (with 450 μL of 1:1 methanol/water).
c. Working Solution: the intermediate solution was diluted with 450 μL of 100 mM potassium phosphate buffer solution (pH 7.4).
Assay Buffer: 100 mM potassium phosphate buffer (pH 7.4) • 10 mM MgCl2
Liver Microsome Solution (final concentration: 0.5 mg protein/mL):
Human liver microsomes, obtained from BD, Cat No. 452117, Lot No. 38291
b. 10 μL of the working solution containing the substance to be tested or the reference substance was added to each of plates (T0, T5, T10, T20, T30, T60, NCF60).
c. The liver microsome solution was dispensed into a 96-well plate in an amount of 680 μL/well, then 80 was added, and then T was added to each of the plates. The above incubation plate was placed at 37° C. and pre-incubated for approximately 10 minutes.
d. 10 μL of 100 mM potassium phosphate buffer was added to each well in the NCF60 plate.
e. After the pre-incubation was finished, the NADPH regeneration system working solution was dispensed into the 96-well plate in an amount of 90 μL/well, and then added to each of the plates in an amount of 10 μL/well to start the reaction.
f. The plates were incubated for an appropriate time (e.g., 5, 10, 20, 30, or 60 minutes).
g. The stop solution (refrigerated at 4° C., containing 100 ng/mL Tolbutamide and 100 ng/mL Labetalol) was added to each sample well in an amount of 300 μL/well.
h. The sample plates were shaken well for about 10 minutes and centrifuged at 4,000 rpm for 20 minutes at 4° C. During the centrifugation, 300 μL of HPLC water was added to each well, and 100 μL of the supernatant was taken for LC-MS/MS analysis.
T1/2 and Clint(mic) were calculated by the following formula: […]
Each gram of liver contained 45 mg of microsome protein, and the liver weight was 20 g/kg in a human.
Ct was the concentration at time t, t was the incubation time, C0 was the concentration at time 0, Ke was an elimination rate constant, Clint(mic) was the intrinsic clearance in liver microsomes, and Clint(liver) was the intrinsic clearance in liver. CLint(mic)=0.693/half-life/mg of microsome protein per mL(concentration of microsomes during incubation) CLint(liver)=CLint(mic)×mg of microsome protein/g of liver weight×a ratio of liver weight to body weight 3.4 Test Results

[3] = biological target: T1, human μ-subtype opioid receptor (hMOR); test: MOR cAMP agonist activity test; assay type: cell-based; settings: for Emax: maximum effect of enkephalin DAMGO was 100%
Method: Test 1: MOR cAMP Agonist Activity Test
1.1 Experimental Purpose: To test the cAMP agonist activity of the compounds of the present disclosure on the human μ-subtype opioid receptor (hMOR).
a. Compound samples were dissolved in DMSO to a storage concentration of 10 mM.
as §6
c. The series of diluted samples were transferred to an experimental plate (Corning-3824) by using an Echo machine, wherein 30 nL was transferred corresponding to each well.
The experiment was performed using a cAMP detection kit from Cisbio (Cisbio #62AM4PEJ).
a. Assay buffer and stimulation buffer (STB) required for the experiment were formulated.
Stimulation Buffer: formulated with the assay buffer, containing 5 μM NKH477 (CAS: 138605-00-2) and 200 μM IBMX (3-isobutyl-1-methylxanthine)
b. […] The number of cells in the well was 10,000 cells/well.
c. The experimental plate was placed in a 37° C. constant-temperature incubator for incubation. The incubation was performed for 40 minutes.
d. A cAMP standard concentration curve was prepared. The first concentration point was at 2848 nM, and a total of sixteen detection concentrations were obtained by 4-fold gradient dilution. There were three replicates for each concentration point.
e. The cAMP detection kit from Cisbio was provided therein with a d2-labeled cAMP reagent (d2 reagent) and an Eu-labeled cAMP antibody reagent (Crypate reagent). The above two reagents were formulated according to the kit instructions, and then added to the sample experimental plate and to the cAMP standard concentration experimental plate, respectively. It was necessary to add 5 μL of the d2 reagent and then 5 μL of the Cryptate reagent to each well.
f. After the experimental plates were left at room temperature for 60 minutes, the experimental plates were read on the Envision.

CYP2C9 = CYP2C9 (Homo sapiens (Human), UniProt P11712); test: Inhibition of cytochrome P450 isoenzymes, CYP2C9; assay type: in vitro ADME; settings: >50 μM: inhibitory effect less than 50% at 50 μM; read-out: CYP 2C9 IC50
Method: as §1, §2, §3, §4, §5

hERG potassium channels = hERG potassium channels (Homo sapiens (Human), UniProt Q12809); test: Effects on hERG potassium channels (Qpatch, CHO-hERG cells); assay type: cell-based; settings: highest test concentration 40 μM, read-out: IC50 representing the blocking effects of hERG potassium currents
Method: 5.1 Experimental Purpose: To test the blocking effects of the compounds of the present disclosure on hERG potassium currents.
a. CHO-hERG cells were cultured in a 175 cm^2 culture flask. When the cells were grown to a density of 60 to 80%, the culture solution was removed, and the cells were washed once with 7 mL of PBS (phosphate buffer solution), and then 3 mL of a cell digestion solution (Detachin) was added for digestion of the cells.
b. After completely digested, the cells were neutralized by adding 7 mL of the culture solution and then centrifuged, the supernatant was removed, and then 5 mL of the culture solution was added for resuspension to ensure a cell density of 2 to 5×10^6 cells/mL.
The single-cell high-impedance sealing and whole-cell pattern formation processes were both carried out automatically by the Qpatch instrument. After the whole-cell recording pattern was obtained, the cells were clamped at −80 millivolts. A preceding voltage of −50 millivolts was applied for 50 milliseconds prior to application of a depolarizing stimulus of +40 millivolts for 5 seconds, and then the cells were repolarized to −50 millivolts and maintained for 5 seconds and then returned back to −80 millivolts. This voltage stimulation was applied every 15 seconds, and data were recorded for 2 minutes, and thereafter the extracellular fluid was administered and data were recorded for 5 minutes, and then the administration process was started. The compound was administered for 2.5 minutes at each test concentration from the lowest test concentration. After all the concentrations of the compound were administered, […] of Cisapride was administered as a positive comparative compound. At least three cells (n>3) were tested for each concentration.
a. A 20 mM compound mother solution was diluted with the extracellular fluid, wherein 5 μL of the 20 mM compound mother solution was taken and diluted 500 times to 40 μM by adding 2495 μL of the extracellular fluid thereto, and then 3-fold serial dilutions were performed sequentially in the extracellular fluid containing 0.2% DMSO to obtain a final concentration to be tested.
b. The highest test concentration was 40 μM, and there were six concentrations in total, i.e., 40, 13.33, 4.44, 1.48, 0.49, and 0.16 μM, respectively.
c. The DMSO content in the final test concentration was not more than 0.2%. This concentration of DMSO had no effect on the hERG potassium channel.
The experimental data were analyzed by XLFit software.

Sequence of CYP2C9 (P11712 whole entry): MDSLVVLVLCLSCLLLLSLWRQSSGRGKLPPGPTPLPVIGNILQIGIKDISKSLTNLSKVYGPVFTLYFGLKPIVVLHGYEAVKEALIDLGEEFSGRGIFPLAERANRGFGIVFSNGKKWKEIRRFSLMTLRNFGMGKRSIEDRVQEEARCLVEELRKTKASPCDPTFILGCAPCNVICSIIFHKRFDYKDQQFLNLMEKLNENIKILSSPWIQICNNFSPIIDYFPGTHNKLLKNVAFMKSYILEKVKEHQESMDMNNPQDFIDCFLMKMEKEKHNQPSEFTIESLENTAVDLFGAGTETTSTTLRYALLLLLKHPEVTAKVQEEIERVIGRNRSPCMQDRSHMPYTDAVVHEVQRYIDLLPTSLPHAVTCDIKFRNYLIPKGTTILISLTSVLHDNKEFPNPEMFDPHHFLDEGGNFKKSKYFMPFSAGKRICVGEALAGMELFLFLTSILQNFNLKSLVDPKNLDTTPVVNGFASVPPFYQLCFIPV
Sequence of CYP2D6 (P10635 whole entry): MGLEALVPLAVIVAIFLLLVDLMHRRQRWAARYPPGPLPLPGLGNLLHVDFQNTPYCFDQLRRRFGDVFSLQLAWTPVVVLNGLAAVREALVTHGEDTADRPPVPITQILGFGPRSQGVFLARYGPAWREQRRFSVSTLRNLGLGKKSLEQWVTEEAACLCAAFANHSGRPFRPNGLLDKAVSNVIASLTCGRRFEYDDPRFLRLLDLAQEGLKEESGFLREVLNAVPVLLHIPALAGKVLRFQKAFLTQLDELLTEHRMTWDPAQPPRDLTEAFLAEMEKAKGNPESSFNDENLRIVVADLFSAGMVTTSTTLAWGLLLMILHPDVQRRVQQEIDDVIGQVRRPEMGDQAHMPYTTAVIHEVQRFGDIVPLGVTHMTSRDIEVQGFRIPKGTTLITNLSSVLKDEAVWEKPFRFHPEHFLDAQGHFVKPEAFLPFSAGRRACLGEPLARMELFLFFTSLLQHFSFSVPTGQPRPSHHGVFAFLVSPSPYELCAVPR
Sequence of CYP2C19 (P33261 whole entry, canonical isoform): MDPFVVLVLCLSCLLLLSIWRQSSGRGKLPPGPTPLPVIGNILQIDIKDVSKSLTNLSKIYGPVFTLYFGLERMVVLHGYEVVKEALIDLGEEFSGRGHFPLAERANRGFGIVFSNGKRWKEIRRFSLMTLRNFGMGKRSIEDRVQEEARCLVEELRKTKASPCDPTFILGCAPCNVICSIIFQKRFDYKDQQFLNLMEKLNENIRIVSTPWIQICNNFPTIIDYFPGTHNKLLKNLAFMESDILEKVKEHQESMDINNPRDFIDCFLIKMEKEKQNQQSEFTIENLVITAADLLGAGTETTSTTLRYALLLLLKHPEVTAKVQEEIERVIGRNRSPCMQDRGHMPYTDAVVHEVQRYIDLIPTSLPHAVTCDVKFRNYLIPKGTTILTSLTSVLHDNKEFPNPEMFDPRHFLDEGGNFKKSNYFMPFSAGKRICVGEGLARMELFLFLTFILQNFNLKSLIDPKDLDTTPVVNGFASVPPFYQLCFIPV
Sequence of CYP3A4 (P08684 whole entry): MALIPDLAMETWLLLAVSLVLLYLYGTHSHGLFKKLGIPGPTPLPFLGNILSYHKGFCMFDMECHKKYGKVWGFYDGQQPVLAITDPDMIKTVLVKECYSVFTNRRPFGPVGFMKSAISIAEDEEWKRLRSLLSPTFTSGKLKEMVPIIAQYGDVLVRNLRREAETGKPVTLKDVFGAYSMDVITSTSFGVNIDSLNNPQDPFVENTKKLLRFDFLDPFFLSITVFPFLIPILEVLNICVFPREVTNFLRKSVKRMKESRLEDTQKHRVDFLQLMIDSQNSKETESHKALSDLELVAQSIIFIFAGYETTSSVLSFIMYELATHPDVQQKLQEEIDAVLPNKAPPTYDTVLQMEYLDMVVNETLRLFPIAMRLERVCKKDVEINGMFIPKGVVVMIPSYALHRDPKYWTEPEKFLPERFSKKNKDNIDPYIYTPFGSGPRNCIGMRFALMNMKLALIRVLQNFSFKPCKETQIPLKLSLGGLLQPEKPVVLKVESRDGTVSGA
Sequence of hERG potassium channels (Q12809 whole entry): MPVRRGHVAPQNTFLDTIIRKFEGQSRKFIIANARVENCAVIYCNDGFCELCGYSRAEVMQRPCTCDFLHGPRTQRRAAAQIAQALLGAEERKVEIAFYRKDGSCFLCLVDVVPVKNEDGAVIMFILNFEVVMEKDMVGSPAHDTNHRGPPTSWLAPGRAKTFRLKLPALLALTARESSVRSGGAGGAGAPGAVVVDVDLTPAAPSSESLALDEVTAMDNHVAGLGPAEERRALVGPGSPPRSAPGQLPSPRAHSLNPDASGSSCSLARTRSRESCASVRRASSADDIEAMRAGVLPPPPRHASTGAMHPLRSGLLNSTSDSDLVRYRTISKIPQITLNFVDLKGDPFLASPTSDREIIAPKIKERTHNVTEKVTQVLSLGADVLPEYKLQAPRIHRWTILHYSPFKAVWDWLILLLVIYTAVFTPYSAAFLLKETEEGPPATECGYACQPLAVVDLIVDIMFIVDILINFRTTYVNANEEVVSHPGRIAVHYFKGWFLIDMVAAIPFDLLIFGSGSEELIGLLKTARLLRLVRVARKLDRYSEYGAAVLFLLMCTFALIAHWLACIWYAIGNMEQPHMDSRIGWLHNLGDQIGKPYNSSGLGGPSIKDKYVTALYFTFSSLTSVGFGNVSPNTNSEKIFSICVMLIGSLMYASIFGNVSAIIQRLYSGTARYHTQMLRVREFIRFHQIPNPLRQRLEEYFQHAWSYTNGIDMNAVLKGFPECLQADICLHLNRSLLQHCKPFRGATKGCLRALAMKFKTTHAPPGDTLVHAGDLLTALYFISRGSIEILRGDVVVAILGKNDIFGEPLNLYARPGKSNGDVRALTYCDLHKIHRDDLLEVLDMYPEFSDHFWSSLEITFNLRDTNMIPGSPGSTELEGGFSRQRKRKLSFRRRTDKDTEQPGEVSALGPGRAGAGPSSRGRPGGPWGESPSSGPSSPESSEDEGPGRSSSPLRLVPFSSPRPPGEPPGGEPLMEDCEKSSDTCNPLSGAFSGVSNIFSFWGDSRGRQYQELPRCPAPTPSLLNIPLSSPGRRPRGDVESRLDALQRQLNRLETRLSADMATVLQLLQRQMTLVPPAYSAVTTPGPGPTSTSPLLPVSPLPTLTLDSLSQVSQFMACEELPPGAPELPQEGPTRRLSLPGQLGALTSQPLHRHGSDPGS

Compound	IC50 (CYP2C19)	EC50 [1]	Emax [1]	IC50 (CYP2D6)	IC50 (CYP3A4)	CLint scaled [2]	EC50 [3]	Emax [3]	IC50 (CYP2C9)	IC50 (hERG potassium channels)
Clc1cccc(CNCC[C@@]2(c3ccccn3)CCO[C@]3(CCOC3)C2)c1 [(+)-8]	> 50 µM	> 30 µM	~0%	17.3 µM	> 50 µM	10 mL/min/kg	0.0018 µM	85.3%	> 50 µM	
Cc1cccc(CNCC[C@@]2(c3ccccn3)CCO[C@]3(CCOC3)C2)c1 [(+)-9]	> 50 µM	> 30 µM	~0%	23.4 µM	21.9 µM	8.8 mL/min/kg	0.0061 µM	88.9%	> 50 µM	
Fc1cc(Cl)cc(CNCC[C@@]2(c3ccccn3)CCO[C@]3(CCOC3)C2)c1 [(+)-18]	> 50 µM	> 30 µM	~0%	24.5 µM	> 50 µM	84.9 mL/min/kg	0.0042 µM	87.7%	> 50 µM	
Fc1ccc([C@]2(CCNCc3cccc(Cl)c3)CCO[C@]3(CCOC3)C2)nc1 [Hydrochloride Salt of (+)-16]										22.8 µM
